Assay results taken from publication PMC6614837 (Nucleic Acids Research, 2019).

Columns and labels:
[1] = target: T1, RNase P holoenzyme (Thermotoga maritima, UniProt Q9X1H4); test: Gel-based activity assay, bipartite pre-tRNA substrate, holoenzyme; format: biochemical, T. maritima; details: 100 mM AmOAc, 10 mM MgCl2
T1 construct: GST (cleaved yes); made in house; host or cells: E. coli BL21(DE3)pLysS
T1 sequence (Q9X1H4 1-117): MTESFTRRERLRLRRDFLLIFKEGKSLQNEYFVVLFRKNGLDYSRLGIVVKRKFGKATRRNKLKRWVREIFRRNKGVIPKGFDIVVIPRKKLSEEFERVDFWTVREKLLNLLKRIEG
Experimental: For gel-based activity assays, reactions were prepared as described in the previous section (fluorescence activity assay), incubated for 1–15 min at 37–50°C, then loaded onto a denaturing 7 M urea–20% acrylamide gel in the case of the Mh substrate or 19% acrylamide (40% acrylamide/bisacrylamide 38.5:1.5) for the bipartite pre-tRNA substrate. The activity conditions for the gel reported in Figure 3A, to monitor the cleavage of the holoenzyme and P RNA, were under 100 mM AmOAc and 10 mM MgCl2. The gels (13 × 16 × 0.15 cm) were electrophoresed at 20 V/cm for 2–3 h. UV shadowing or ethidium bromide staining was used to visualize RNA cleavage. Detection of minihelix fluorescence was achieved without staining using a UV lamp with excitation at ∼254 nm.
Figure 3. The inhibitors purpurin and hematein bind to the holoenzyme. (A) Top. […] Bottom. […] (B) The relative affinities of the inhibitors for the P RNA or the holoenzyme differ. Binding sensorgrams obtained by biolayer interferometry (BLI). P RNA or RNase P holoenzyme was immobilized on super streptavidin (SSA) biosensors through a 5′-biotinylated RNA oligonucleotide complementary to a region on the P1 stem of P RNA (see Materials and Methods). […] In contrast, gentian violet binds not only to P RNA but also to the Mh substrate (Supplementary Figure S16). […]

[2] = target: T2, RNase P holoenzyme from T. maritima (Thermotoga maritima, UniProt Q9X1H4); test: End-point urea-PAGE RNase P activity assay with canonical pre-tRNA substrate; format: biochemical; details: 10% DMSO
T2 construct: made in house
T2 sequence (Q9X1H4 1-117): T1 sequence (Q9X1H4 1-117)
Experimental: Supplementary Figure 11 . End-point urea-PAGE RNase P activity assays using a canonical pre-tRNA substrate are in agreement with the fluorescence inhibition experiments. RNase P holoenzyme from T. maritima is inhibited by the four validated hits, as observed in an 18% urea- PAGE end-point assay. RNase P holoenzyme was incubated in the presence of 10% DMSO (+) or different concentrations of compound for 30 min at 37°C. See also Supplementary Figure […]
Supplementary Figure 12. End-point urea-PAGE RNase P activity assays using a canonical pre-tRNA substrate are in agreement with the fluorescence inhibition experiments using the minihelix substrate. Compound-dependent disappearance of the pre-tRNA substrate, with a […]
biological substrate for the inhibitors (juglone and purpurin). The assays were performed under the following conditions: 66 nM RNase P holoenzyme, in a total volume of 20 µL in activity buffer (33 mM Tris, 66 mM HEPES pH 7.4, 400 mM ammonium acetate, 100 mM MgCl2) were incubated in the presence of 10% DMSO (+) or different concentrations of compound for 30 min at 37° C. Then, pre-tRNA was added to a final concentration of 1.6 µM and the reaction was incubated at 55° C for 25 min before gel loading. […]

SMILES	Inhibition of the holoenzyme reaction [1]	Inhibition of pre-tRNA cleavage (urea-PAGE end-point) [2]
O=C1C=C2CC3(O)COc4c(ccc(O)c4O)C3=C2C=C1O (stereo not shown) [Hematein, 3,4,6a,10-tetrahydroxy-6a,7-dihydroindeno[2,1-c]chromen-9(6H)-one]	inhibit the reaction catalyzed by the RNase P holoenzyme	–
O=C1C=CC(=O)c2c(O)cccc21 [Juglone, 5-hydroxy-1,4-naphthoquinone]	–	confirms the inhibition
O=C1c2ccccc2C(=O)c2c(O)c(O)cc(O)c21 [Purpurin, 1,2,4-trihydroxyanthraquinone]	inhibit the reaction catalyzed by the RNase P holoenzyme	confirms the inhibition
